Like-named read-outs stand apart in the source and are kept apart here.
Columns and labels:
[1] = test system: Amaranthus rudis (AMATA), tall water hemp; experiment: Postemergence herbicide evaluation, growth of Amaranthus rudis (AMATA); assay type: in vivo; conditions: Amaranthus tuberculatus, post-emergence, read-out: Ave. AMATA
[2] = test system: glyphosate resistant Conyza canadensis (L.) (ERICA), horseweed; experiment: Postemergence herbicide evaluation, growth of Conyza canadensis (ERICA); assay type: in vivo; conditions: Erigeron canadensis, post-emergence, read-out: Ave. ERICA
[3] = test system: weeds (ABUTH, AMATA, AMBEL, CHEAL, ERICA); experiment: Postemergence herbicide evaluation, overall average % weed control across ABUTH, AMATA, AMBEL, CHEAL, ERICA; assay type: in vivo; conditions: post-emergence, average over the five weeds, read-out: Overall Ave % Weed Control; for pest or weed control at 280 g/ha: 280 g ae/ha; for pest or weed control at 560 g/ha: 560 g ae/ha
[4] = test system: Abutilon theophrasti (ABUTH), velvetleaf; experiment: Postemergence herbicide evaluation, growth of Abutilon theophrasti (ABUTH); assay type: in vivo; conditions: Abutilon theophrasti, post-emergence, read-out: AVE. ABUTH
[5] = test system: Ambrosia artemisiifolia (AMBEL), common ragweed; experiment: Postemergence herbicide evaluation, growth of Ambrosia artemisiifolia (AMBEL); assay type: in vivo; conditions: Ambrosia artemisiifolia, post-emergence, read-out: AVE. AMBEL
[6] = test system: Chenopodium album (CHEAL), common lambsquarters; experiment: Postemergence herbicide evaluation, growth of Chenopodium album (CHEAL); assay type: in vivo; conditions: Chenopodium album, post-emergence, read-out: Ave. CHEAL
[7] = Volatility of compounds measured by thermogravimetric analysis (TGA); assay type: physicochemical
[8] = 168 h, 280 g ae/ha, 7 DAA, percent reduction in plant size relative to untreated control
[9] = 168 h, 560 g ae/ha, 7 DAA, percent reduction in plant size relative to untreated control
[10] = 336 h, 280 g ae/ha, 14 DAA, percent reduction in plant size relative to untreated control
[11] = 336 h, 560 g ae/ha, 14 DAA, percent reduction in plant size relative to untreated control
[12] = 504 h, 280 g ae/ha, 21 DAA, percent reduction in plant size relative to untreated control
[13] = 504 h, 560 g ae/ha, 21 DAA, percent reduction in plant size relative to untreated control

For CN(NC(=O)COc1ccc(Cl)cc1Cl)C(=O)c1ccccc1 [Compound D9, N′-(2-(2,4-Dichlorophenoxy)acetyl)-N-methylbenzohydrazide], the pest or weed control at 280 g/ha [1, 8] was 65%, the pest or weed control at 560 g/ha [1, 9] was 68% and the pest or weed control at 280 g/ha [1, 10] was 75%. It also gave a pest or weed control at 560 g/ha [1, 11] of 70%, a pest or weed control at 280 g/ha [1, 12] of 83% and a pest or weed control at 560 g/ha [1, 13] of 73%. For the same molecule, the pest or weed control at 280 g/ha [2, 8] was 65%, the pest or weed control at 560 g/ha [2, 9] was 68% and the pest or weed control at 280 g/ha [2, 10] was 83%. For the same molecule, the pest or weed control at 560 g/ha [2, 11] was 88%, the pest or weed control at 280 g/ha [2, 12] was 94% and the pest or weed control at 560 g/ha [2, 13] was 65%. For the same molecule, the pest or weed control at 280 g/ha ([3]; 168 h, 7 DAA) was 60%, the pest or weed control at 560 g/ha ([3]; 168 h, 7 DAA) was 63% and the pest or weed control at 280 g/ha ([3]; 336 h, 14 DAA) was 72%. The pest or weed control at 560 g/ha ([3]; 336 h, 14 DAA) was 75%, the pest or weed control at 280 g/ha ([3]; 504 h, 21 DAA) was 80% and the pest or weed control at 560 g/ha ([3]; 504 h, 21 DAA) was 75%. It also gave a pest or weed control at 280 g/ha [4, 8] of 43%, a pest or weed control at 560 g/ha [4, 9] of 43% and a pest or weed control at 280 g/ha [4, 10] of 45%. For the same molecule, the pest or weed control at 560 g/ha [4, 11] was 48%, the pest or weed control at 280 g/ha [4, 12] was 45% and the pest or weed control at 560 g/ha [4, 13] was 50%. It also gave a pest or weed control at 280 g/ha [5, 8] of 60%, a pest or weed control at 560 g/ha [5, 9] of 73% and a pest or weed control at 280 g/ha [5, 10] of 83%. The pest or weed control at 560 g/ha [5, 11] was 94%, the pest or weed control at 280 g/ha [5, 12] was 85% and the pest or weed control at 560 g/ha [5, 13] was 99%. The pest or weed control at 280 g/ha [6, 8] was 65%, the pest or weed control at 560 g/ha [6, 9] was 65% and the pest or weed control at 280 g/ha [6, 10] was 73%. For the same molecule, the pest or weed control at 560 g/ha [6, 11] was 78%, the pest or weed control at 280 g/ha [6, 12] was 95% and the pest or weed control at 560 g/ha [6, 13] was 90%. For the same molecule, the “TGA Data (rate of weight loss, volatility)” value [7] was 0.2 µg/min.

Work on O=C(COc1ccc(Cl)cc1Cl)OCOC(=O)c1ccccc1 [Compound E7, (2-(2,4-Dichlorophenoxy)acetoxy)methyl benzoate] yielded a pest or weed control at 280 g/ha ([1]; 168 h) of 78%, a pest or weed control at 560 g/ha ([1]; 168 h) of 80% and a pest or weed control at 280 g/ha ([1]; 336 h) of 95%. It also gave a pest or weed control at 560 g/ha ([1]; 336 h) of 85%, a pest or weed control at 280 g/ha ([1]; 504 h) of 93% and a pest or weed control at 560 g/ha ([1]; 504 h) of 89%. For the same molecule, the pest or weed control at 280 g/ha ([2]; 168 h) was 65%, the pest or weed control at 560 g/ha ([2]; 168 h) was 70% and the pest or weed control at 280 g/ha ([2]; 336 h) was 83%. For the same molecule, the pest or weed control at 560 g/ha ([2]; 336 h) was 88%, the pest or weed control at 280 g/ha ([2]; 504 h) was 93% and the pest or weed control at 560 g/ha ([2]; 504 h) was 95%. The pest or weed control at 280 g/ha ([3]; 168 h, 7 DAA) was 71%, the pest or weed control at 560 g/ha ([3]; 168 h, 7 DAA) was 78% and the pest or weed control at 280 g/ha ([3]; 336 h, 14 DAA) was 85%. The pest or weed control at 560 g/ha ([3]; 336 h, 14 DAA) was 90%, the pest or weed control at 280 g/ha ([3]; 504 h, 21 DAA) was 88% and the pest or weed control at 560 g/ha ([3]; 504 h, 21 DAA) was 89%. The pest or weed control at 280 g/ha ([4]; 168 h) was 80%, the pest or weed control at 560 g/ha ([4]; 168 h) was 85% and the pest or weed control at 280 g/ha ([4]; 336 h) was 84%. It also gave a pest or weed control at 560 g/ha ([4]; 336 h) of 89%, a pest or weed control at 280 g/ha ([4]; 504 h) of 90% and a pest or weed control at 560 g/ha ([4]; 504 h) of 92%. The pest or weed control at 280 g/ha ([5]; 168 h) was 63%, the pest or weed control at 560 g/ha ([5]; 168 h) was 78% and the pest or weed control at 280 g/ha ([5]; 336 h) was 93%. For the same molecule, the pest or weed control at 560 g/ha ([5]; 336 h) was 97%, the pest or weed control at 280 g/ha ([5]; 504 h) was 96% and the pest or weed control at 560 g/ha ([5]; 504 h) was 100%. For the same molecule, the pest or weed control at 280 g/ha ([6]; 168 h) was 68%, the pest or weed control at 560 g/ha ([6]; 168 h) was 75% and the pest or weed control at 280 g/ha ([6]; 336 h) was 73%. For the same molecule, the pest or weed control at 560 g/ha ([6]; 336 h) was 93%, the pest or weed control at 280 g/ha ([6]; 504 h) was 70% and the pest or weed control at 560 g/ha ([6]; 504 h) was 70%. The “TGA Data (rate of weight loss, volatility)” value [7] was 1.5 µg/min.

O=C(COc1ccc(Cl)cc1Cl)ON1CCCCC1 [Compound A11, Piperidin-1-yl 2-(2,4-dichlorophenoxy)acetate] showed a pest or weed control at 280 g/ha [1, 8] of 73%, a pest or weed control at 560 g/ha [1, 9] of 75% and a pest or weed control at 280 g/ha [1, 10] of 89%. It also gave a pest or weed control at 560 g/ha [1, 11] of 85%, a pest or weed control at 280 g/ha [1, 12] of 85% and a pest or weed control at 560 g/ha [1, 13] of 88%. For the same molecule, the pest or weed control at 280 g/ha [2, 8] was 65%, the pest or weed control at 560 g/ha [2, 9] was 68% and the pest or weed control at 280 g/ha [2, 10] was 90%. For the same molecule, the pest or weed control at 560 g/ha [2, 11] was 85%, the pest or weed control at 280 g/ha [2, 12] was 95% and the pest or weed control at 560 g/ha [2, 13] was 95%. The pest or weed control at 280 g/ha ([3]; 168 h, 7 DAA) was 71%, the pest or weed control at 560 g/ha ([3]; 168 h, 7 DAA) was 75% and the pest or weed control at 280 g/ha ([3]; 336 h, 14 DAA) was 87%. For the same molecule, the pest or weed control at 560 g/ha ([3]; 336 h, 14 DAA) was 87%, the pest or weed control at 280 g/ha ([3]; 504 h, 21 DAA) was 91% and the pest or weed control at 560 g/ha ([3]; 504 h, 21 DAA) was 95%. For the same molecule, the pest or weed control at 280 g/ha [4, 8] was 83%, the pest or weed control at 560 g/ha [4, 9] was 85% and the pest or weed control at 280 g/ha [4, 10] was 93%. For the same molecule, the pest or weed control at 560 g/ha [4, 11] was 89%, the pest or weed control at 280 g/ha [4, 12] was 99% and the pest or weed control at 560 g/ha [4, 13] was 95%. For the same molecule, the pest or weed control at 280 g/ha [5, 8] was 65%, the pest or weed control at 560 g/ha [5, 9] was 78% and the pest or weed control at 280 g/ha [5, 10] was 90%. It also gave a pest or weed control at 560 g/ha [5, 11] of 97%, a pest or weed control at 280 g/ha [5, 12] of 95% and a pest or weed control at 560 g/ha [5, 13] of 100%. It also gave a pest or weed control at 280 g/ha [6, 8] of 68%, a pest or weed control at 560 g/ha [6, 9] of 70% and a pest or weed control at 280 g/ha [6, 10] of 75%. The pest or weed control at 560 g/ha [6, 11] was 80%, the pest or weed control at 280 g/ha [6, 12] was 80% and the pest or weed control at 560 g/ha [6, 13] was 97%. For the same molecule, the “TGA Data (rate of weight loss, volatility)” value [7] was 4 µg/min.

— patent US20260042731A1, “(2,4-DICHLOROPHENOXY)ACETIC ACID ANALOGS” (CORTEVA AGRISCIENCE LLC, priority 2022, published 2026)
